Measurements: patent US9676754B2, “Triazolone compounds and uses thereof” (Inception 2, Inc., priority 2012, dated 2017)

The compounds below were run against T1, Human PPARα (Homo sapiens, UniProt Q07869) (assay: Human PPARα Reporter Assay (luciferase)). Details: antagonist activity, luciferase reporter cells, overnight incubation; read-out: Human PPARα Reporter Assay-Luciferase IC50.
T1 construct: host or cells: proprietary non-human mammalian cells
T1 sequence (Q07869 1-468): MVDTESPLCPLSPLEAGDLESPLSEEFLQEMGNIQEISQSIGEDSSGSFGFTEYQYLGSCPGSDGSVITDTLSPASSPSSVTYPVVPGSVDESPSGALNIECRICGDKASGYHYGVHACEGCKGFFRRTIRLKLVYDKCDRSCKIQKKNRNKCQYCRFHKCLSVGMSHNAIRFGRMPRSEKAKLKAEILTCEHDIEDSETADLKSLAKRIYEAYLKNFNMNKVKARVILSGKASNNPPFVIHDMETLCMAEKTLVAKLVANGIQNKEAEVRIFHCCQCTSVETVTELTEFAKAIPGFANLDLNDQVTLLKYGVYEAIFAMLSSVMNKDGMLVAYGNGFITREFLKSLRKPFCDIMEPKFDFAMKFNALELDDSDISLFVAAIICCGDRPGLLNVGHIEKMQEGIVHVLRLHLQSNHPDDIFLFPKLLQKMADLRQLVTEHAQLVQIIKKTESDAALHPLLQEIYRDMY
Format: cell-based
Method: Human PPARα Reporter Assay
The screening of test compounds for agonist or antagonist activities against human PPARα receptors was performed using a commercial kit, Human PPARα Reporter Assay System (Indigo Biosciences, Cat. #IB00111).
This nuclear receptor assay system utilizes proprietary non-human mammalian cells engineered to provide constitutive, high-level expression of Human PPARα. Because these cells incorporate a PPARα-responsive luciferase reporter gene, quantifying expressed luciferase activity provides a sensitive surrogate measure of PPARα activity in the treated cells. The primary application of this reporter assay system is in the screening of test samples to quantify any functional activity, either agonist or antagonist, that they may exert against human PPARα. […] Briefly, the reporter cells are dispensed into wells of the assay plate and then immediately dosed with test compounds. Following an overnight incubation, the treatment media are discarded and Luciferase Detection Reagent (LDR) is added. The intensity of light emission from the ensuing luciferase reaction provides a sensitive measure that is directly proportional to the relative level of PPARα activation in the reporter cells.

Row | IC50 [µM] | SMILES
1 | 3.43 | CCOc1ccc(-c2cc(CCCc3nn(Cc4ccc(C(C)(C)C)cc4)c(=O)n3CC)ncn2)cc1CC(=O)O [Example 27, 2-(5-(6-(3-(1-(4-(tert-Butyl)benzyl)-4-ethyl-5-oxo-4,5-dihydro-1H-1,2,4-triazol-3-yl)propyl)pyrimidin-4-yl)-2-ethoxyphenyl)acetic acid]
2 | 0.14 | CCn1c(CCCc2cccc(-c3ccc(CC(=O)O)c(OC)c3)c2)nn(Cc2ccc(C(C)(C)C)cc2)c1=O [Example 28, (3′-(3-(1-(4-(tert-Butyl)benzyl)-4-ethyl-5-oxo-4,5-dihydro-1H-1,2,4-triazol-3-yl)propyl)-3-methoxy-[1,1′-biphenyl]-4-yl)acetic acid]
3 | 0.059 | CCOc1cc(-c2cccc(CCCc3nn(Cc4ccc(C(C)(C)C)cc4)c(=O)n3CC)c2)ccc1CC(=O)O [Example 29, (3′-(3-(1-(4-(tert-Butyl)benzyl)-4-ethyl-5-oxo-4,5-dihydro-1H-1,2,4-triazol-3-yl)propyl)-3-ethoxy-[1,1′-biphenyl]-4-yl)acetic acid]
4 | 0.036 | CCCOc1cc(-c2cccc(CCCc3nn(Cc4ccc(C(C)(C)C)cc4)c(=O)n3CC)c2)ccc1CC(=O)O [Example 30, (3′-(3-(1-(4-(tert-Butyl)benzyl)-4-ethyl-5-oxo-4,5-dihydro-1H-1,2,4-triazol-3-yl)propyl)-3-propoxy-[1,1′-biphenyl]-4-yl)acetic acid]
